The source of these data is patent publication US4769235A, “Immunodominant epitope of the circumsporozoite surface protein” (New York University, priority 1984, dated 1988).

Entries after “also recorded” stand apart in the source; their conditions may differ. No end group written: not given here.

Assay [1] has as its system binding of monoclonal antibody 2G3 to the CS protein P. knowlesi. Conditions: cited from earlier work.
Another assay relates to monoclonal antibody 8E11. The assay can be described thus: Binding of 125I-labelled tetraeicosapeptide to Sepharose beads bearing monoclonal antibody 8E11. Set-up: species or system mouse. As to conditions: other experiments, not shown. The text has this:
(§1) Monoclonal antibodies against surface antigens of sporozoites of the simian malaria parasite Plasmodium knowlesi were produced by fusion of plasmacytoma cells with spleen cells of a mouse immunized witn the parasite as previously described by Cochrane et al., supra., (1982) and described in detail in the Malaria Vaccine patent application. The monoclonal antibodies (four idiotypes: 2G3, 8B8, 5H8 and 8E11 were partially purified from ascites of mice bearing hybridomas by 50% ammonium sulphate precipitation followed by molecular sieve chromatography on Sephadex G-200.
(§2) To determine whether the 24-peptide is recognized by all monoclonal antibodies, 5 mg of purified monoclonal antibodies were bound to 1 ml of CNBr activated Sepharose 4B (Pharmacia Fine Chemicals, Piscataway, N.J., U.S.A.) according to instructions of the manufacturer. The 24 amino acid peptide was radiolabelled with ^125 I with the Boulton-Hunter reagent, to a specific activity of approximately 10^4 cpm/μg. Twenty μl of beads bearing the different antibodies were incubated for 60 minutes at room temperature in the presence of 100 μl of PBS-BSA containing either 1 μg of the radiolabelled peptide alone or radiolabelled peptide in the presence of […] of cold tetraeicosapeptide. The beads were then washed by centrifugation with PBS-BSA and counted in a gamma-counter.

The subject of assay [2] is monoclonal anti-CS / CS protein of P. knowlesi. As to the kind of experiment: Reactivity of synthetic peptides with monoclonal anti-CS (antibody not specified). It counts as binding. As to conditions: antibody not given; compared with (1-12) or (5-12) where stated. As to the method: Four monoclonal antibodies (2G3, 5H8, 8B8, and 8E11) were used in immunoactivity testing of synthesized shorter length analogs of the 12-peptide. The purpose was further localization and identification of the epitope contained therein.
After synthesis, cleavage and purification, the peptides were tested for reactivity with monoclonal anti-CS, preferably partially purified. The anti-CS used in these tests were produced by ascites tumor induction using hybridoma cells resulting from the fusion of plasmacytoma cells with spleen cells of a mouse immunized with the parasite, as described by Cochrane, A. H. et al, supra, and as disclosed in the Malaria Vaccine patent application.
The immunoactivity of the synthetic peptides was evaluated by measuring their ability to inhibit the reaction between the monoclonal anti-CS and the antigen (CS protein). […]
Competitive inhibition of the antigen-antibody reaction by the thus synthesized peptides was measured by the following radioimmunoassay. […]
(§3) All synthetic peptides were dissolved in PBS at a concentration of 10 mM and subsequently diluted serially in PBS-1% BSA/0.1% NaN3. […] The microtiter plates were incubated at 4° C. for 18 hours, washed 5 times with PBS-BSA-NaN3 and then the wells were counted for well-bound antibody. […]

The subject of assay [3] is binding of monoclonal antibody 2G3 to the CS protein P. knowlesi. As to the kind of experiment: Inhibition radioimmunoassay: binding of 125I-labelled monoclonal antibody 2G3 to P. knowlesi CS protein. As to conditions: for Inhibitory activity on binding of monoclonal antibody 2G3 to CS protein (in words): FIGS. 1, 2 / Table 3. As to the method:
(§4) The immunoactivity of the synthetic peptides was evaluated by measuring their ability to inhibit the reaction between the monoclonal anti-CS and the antigen (CS protein). Antigen was purified from sporozoites, as disclosed in the Malaria Vaccine patent application and as also described by Vanderberg, supra, and Zavala, F., et al, supra, 1982, is preferably employed using ^125 I-labeled antibody.
(§5) Competitive inhibition of the antigen-antibody reaction by the thus synthesized peptides was measured by the following radioimmunoassay. P. knowlesi sporozoite CS protein was used as the antigen.
(§6) (a) Preparation of antigen: 3,000 purified P. knowlesi sporozoites (Vanderberg et al., Military Medicine 134:1183, 1969) in 50 μl of phosphate buffered saline (PBS) containing protease inhibitors, were delivered to the bottom of polystyrene (Falcon 3911 plate, B-D and Co., Oxnard, Calif.) microtiter plates, which were sealed with parafilm and frozen at -70° C. for at least ten minutes. The plates were then allowed to defrost slowly at room temperature. This procedure was repeated six times. Then the plates were incubated at 4° C. overnight, and at 56° C. for five minutes. The P. knowlesi extract was then removed from the wells and these were washed three times with PBS containing 1% bovine serum albumin (BSA) and 0.1% NaN3. The wells were then filled with PBS-BSA-NaN3 for a few hours at room temperature.
(§7) All synthetic peptides were dissolved in PBS at a concentration of 10 mM and subsequently diluted serially in PBS-1% BSA/0.1% NaN3. Twenty-five μl of serial dilutions of each peptide were added to the wells coated with antigen. Control wells received only the diluent. Then, 25 μl of the ^125 I-labelled monoclonal antibody (about 5-10ng, 10 ^5 cpm) were added to the wells. The microtiter plates were incubated at 4° C. for 18 hours, washed 5 times with PBS-BSA-NaN3 and then the wells were counted for well-bound antibody. (LKB 1260 Muilti-gamma γ-counter LKB Instruments, Inc., Gaithersburg, Md.). […]

Assay [4] deals with monoclonal antibody 8B8 against the surface protein of P. knowlesi. As to the kind of experiment: Binding of 125I-labelled tetraeicosapeptide to Sepharose beads bearing monoclonal antibody 8B8. Set-up: species or system mouse.
Text: as §1, §2

A further assay deals with monoclonal antibody 6B8. The assay can be described thus: Binding of 125I-labelled tetraeicosapeptide to Sepharose beads bearing monoclonal antibody 6B8. Set-up: species or system mouse. As to conditions: other experiments, not shown.
Text: as §1, §2

Assay [5] has as its system binding of monoclonal antibody 5H8 to the CS protein P. knowlesi. As to the kind of experiment: Inhibition radioimmunoassay: binding of 125I-labelled monoclonal antibody 5H8 to P. knowlesi CS protein. As to conditions: summary of FIGS. 1, 3 / Table 3. On the procedure:
as §4, §5
(§8) (a) Preparation of antigen: 3,000 purified P. knowlesi sporozoites (Vanderberg et al., Military Medicine 134:1183, 1969) in 50 μl of phosphate buffered saline (PBS) containing protease inhibitors, were delivered to the bottom of polystyrene (Falcon 3911 plate, B-D and Co., Oxnard, Calif.) microtiter plates, which were sealed with parafilm and frozen at -70° C. for at least ten minutes. The plates were then allowed to defrost slowly at room temperature. This procedure was repeated six times. […]
as §3

Assay [6] relates to monoclonal antibody (3D11) against the surface protein of P. berghei. As to the kind of experiment: Binding of 125I-labelled tetraeicosapeptide to control beads bearing monoclonal antibody 3D11. As to the method:
as §2

The test system of assay [7] is binding of radiolabelled 8E11 to the CS protein of P. knowlesi. The assay can be described thus: Inhibition radioimmunoassay: binding of radiolabelled monoclonal antibody 8E11 to P. knowlesi CS protein. As to the method:
as §4, §5, §6, §7

The subject of assay [8] is monoclonal antibody 5H8 against the surface protein of P. knowlesi. The assay can be described thus: Binding of 125I-labelled tetraeicosapeptide to Sepharose beads bearing monoclonal antibody 5H8. Set-up: species or system mouse.
Text: as §1, §2

Assay [9] deals with monoclonal antibody 8A8 against the surface protein of P. knowlesi. The assay can be described thus: Binding of 125I-labelled tetraeicosapeptide to Sepharose beads bearing monoclonal antibody 8A8. Set-up: species or system mouse.
Assay [10] relates to monoclonal antibody 2G3 against the surface protein of P. knowlesi. As to the kind of experiment: Binding of 125I-labelled tetraeicosapeptide to Sepharose beads bearing monoclonal antibody 2G3. Set-up: species or system mouse.
Text: as §1, §2

Assay [11] has as its system binding of monoclonal antibody 8B8 to the CS protein P. knowlesi. The assay can be described thus: Inhibition radioimmunoassay: binding of 125I-labelled monoclonal antibody 8B8 to P. knowlesi CS protein. Conditions: text summary of FIG. 4 / Table 3. As to the method: as §4, §5, §8, §3
Setting [12] is: 8B8 beads in PBS-BSA + excess of cold tetraeicosapeptide.
Setting [13] is: control 3D11 beads suspended in PBS-BSA.
[14] abbreviates: 5H8 beads in PBS-BSA + excess of cold tetraeicosapeptide.
Setting [15] is: 8A8 beads in PBS-BSA + excess of cold tetraeicosapeptide.
[16] abbreviates: 2G3 beads in PBS-BSA + excess of cold tetraeicosapeptide.

As to “H-QAQGDGANAGQPQAQGDGANAGQP-NH2 [Peptide 1-24]”, the “Reactivity with monoclonal anti-CS 2G3 (previous work)” value in [1] was “interacted simultaneously with two molecules of 2G3”. The “Binding of radiolabelled (1-24) to beads bearing 8E11 (in words)” value in the assay with monoclonal antibody 8E11 is “Analogous results”. The “Reactivity with monoclonal anti-CS (in words)” value in assay [2] is on record as “reacted”. Besides, the “Inhibitory activity on binding of monoclonal antibody 2G3 to CS protein (in words)” value in assay [3] is listed as “almost identical”. Besides, the “% of input of radiolabelled tetraeicosa peptide that bound to the beads” value in [4] (setting [12]) is recorded as 0.2 % of input; in assay [4] (8B8 beads suspended in PBS-BSA), 27.8 % of input; in assay [6] (setting [13]) it was 0.2 % of input; in [8] (setting [14]), 0.2 % of input; in assay [8] (5H8 beads suspended in PBS-BSA) it was 19.7 % of input; in [9] (setting [15]) it was 0.2 % of input. The results for the “% of input of radiolabelled tetraeicosa peptide that bound to the beads” value in [9] (8A8 beads suspended in PBS-BSA), in assay [10] (setting [16]) and in [10] (2G3 beads suspended in PBS-BSA) were 10.3 % of input, 0.2 % of input and 25.8 % of input, respectively. For the same substance, the “cpm of radiolabelled tetraeicosa peptide that bound to the beads” value in assay [4] (setting [12]) was found to be 20 cpm; in assay [4] (8B8 beads suspended in PBS-BSA), 3155 cpm; in assay [6] (control 3D11 beads in PBS-BSA + excess of cold tetraeicosapeptide), 0 cpm; in assay [6] (setting [13]), 25 cpm; in assay [8] (setting [14]) it was 20 cpm; in assay [8] (5H8 beads suspended in PBS-BSA) it was 2332 cpm. The “cpm of radiolabelled tetraeicosa peptide that bound to the beads” value in assay [9] (setting [15]) was determined as 25 cpm; in assay [9] (8A8 beads suspended in PBS-BSA), 1092 cpm; in assay [10] (setting [16]) it was 25 cpm; in [10] (2G3 beads suspended in PBS-BSA, 1 μg radiolabelled peptide), 2922 cpm. Besides, in the assay on monoclonal antibody 6B8, the “Binding of radiolabelled (1-24) to beads bearing 6B8 (in words)” value was “Analogous results”. For the same substance, the “Inhibitory activity on binding of monoclonal antibody 5H8 to CS protein (in words)” value in assay [5] is “almost identical”. The “Inhibition of binding of antibody 8E11 to CS protein (in words)” value in [7] is “inhibited”. The IC50 in assay [7] (FIG. 1, read-out: Concentration giving about 50% inhibition of binding of radiolabelled 8E11 to the CS protein) was around 10 µM.

“QAQGDGANAGQP-NH2 [Peptide 1-12, NH2 Gln-Ala-Gln-Gly-Asp-Gly-Ala-Asn-Ala-Gly-Gln-ProCONH2]”: the “Inhibitory activity on binding of monoclonal antibody 8B8 to CS protein (in words)” value in assay [11] is given as “strongly inhibitory”. The “Reactivity with monoclonal anti-CS 2G3 (previous work)” value in assay [1] is reported as “very effectively inhibited”. In addition, in [2], the “Reactivity with monoclonal anti-CS (in words)” value was “very efficient inhibitors”. The “Inhibitory activity on binding of monoclonal antibody 2G3 to CS protein (in words)” value in assay [3] is on record as “almost identical; also recorded: strongly inhibitory”. Further, in assay [3] (head prints (×5), radiolabeled 2G3, CS protein P. knowlesi immobilized on wells, 4° C. for 18 hours), the “Molar concentration of peptide (×5) necessary for 50% inhibition of binding of monoclonal antibody 2G3” value is 10^-13 Molar. For the same substance, the “Inhibitory activity on binding of monoclonal antibody 5H8 to CS protein (in words)” value in assay [5] is “almost identical; also recorded: strongly inhibitory”. Further, the “Inhibitory effect on binding of 8E11 to CS protein at a fixed concentration” value in assay [7] (at a concentration of 10^-2 M) is on record as “no appreciable inhibitory effect”.
